Data as given in ChEMBL document CHEMBL1681764, “Isolation, structure identification and SAR studies on thiosugar sulfonium salts, neosalaprinol and neoponkoranol, as potent α-glucosidase inhibitors” (Bioorg Med Chem, 2011).

Key:
[1] = target: T1, Sucrase-isomaltase, intestinal (Rattus norvegicus, UniProt P23739); test: Inhibition of rat intestinal sucrase
[2] = target: T1, Sucrase-isomaltase, intestinal; test: Inhibition of rat intestinal isomaltase
[3] = target: Sucrase-isomaltase, intestinal (Rattus norvegicus) (UniProt P23739); test: Inhibition of rat intestinal sucrase at >384 uM
Sequence of Sucrase-isomaltase, intestinal (Rattus norvegicus) (P23739 1-1013 limits assumed): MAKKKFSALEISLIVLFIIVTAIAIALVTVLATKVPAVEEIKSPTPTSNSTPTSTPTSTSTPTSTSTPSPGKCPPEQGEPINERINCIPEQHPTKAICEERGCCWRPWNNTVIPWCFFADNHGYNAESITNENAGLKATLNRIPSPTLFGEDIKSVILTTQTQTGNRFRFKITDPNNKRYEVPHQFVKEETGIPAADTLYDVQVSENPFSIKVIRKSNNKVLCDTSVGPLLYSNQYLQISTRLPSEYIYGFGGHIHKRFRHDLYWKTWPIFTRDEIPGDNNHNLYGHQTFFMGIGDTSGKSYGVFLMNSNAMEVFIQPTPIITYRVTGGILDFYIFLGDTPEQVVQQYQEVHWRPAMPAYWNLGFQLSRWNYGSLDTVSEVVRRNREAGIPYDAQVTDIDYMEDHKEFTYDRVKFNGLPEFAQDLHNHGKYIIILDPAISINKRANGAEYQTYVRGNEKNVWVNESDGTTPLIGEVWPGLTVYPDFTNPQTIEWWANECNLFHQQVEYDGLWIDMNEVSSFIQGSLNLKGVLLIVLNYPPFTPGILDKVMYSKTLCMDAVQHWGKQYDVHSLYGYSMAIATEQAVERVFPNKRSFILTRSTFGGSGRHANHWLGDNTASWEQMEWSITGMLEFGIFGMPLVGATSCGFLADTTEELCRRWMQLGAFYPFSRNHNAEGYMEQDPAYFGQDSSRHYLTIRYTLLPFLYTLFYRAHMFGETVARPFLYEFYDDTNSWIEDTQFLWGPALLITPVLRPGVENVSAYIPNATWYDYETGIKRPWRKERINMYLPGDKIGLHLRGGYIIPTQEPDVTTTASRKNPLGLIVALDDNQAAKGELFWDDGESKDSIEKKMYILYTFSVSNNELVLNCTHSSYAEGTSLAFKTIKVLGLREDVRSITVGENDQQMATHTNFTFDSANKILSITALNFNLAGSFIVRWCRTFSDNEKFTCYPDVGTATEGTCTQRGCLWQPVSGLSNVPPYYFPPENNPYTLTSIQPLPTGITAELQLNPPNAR
Sequence of Sucrase-isomaltase, intestinal (Rattus norvegicus) (P23739 1014-1841 limits assumed): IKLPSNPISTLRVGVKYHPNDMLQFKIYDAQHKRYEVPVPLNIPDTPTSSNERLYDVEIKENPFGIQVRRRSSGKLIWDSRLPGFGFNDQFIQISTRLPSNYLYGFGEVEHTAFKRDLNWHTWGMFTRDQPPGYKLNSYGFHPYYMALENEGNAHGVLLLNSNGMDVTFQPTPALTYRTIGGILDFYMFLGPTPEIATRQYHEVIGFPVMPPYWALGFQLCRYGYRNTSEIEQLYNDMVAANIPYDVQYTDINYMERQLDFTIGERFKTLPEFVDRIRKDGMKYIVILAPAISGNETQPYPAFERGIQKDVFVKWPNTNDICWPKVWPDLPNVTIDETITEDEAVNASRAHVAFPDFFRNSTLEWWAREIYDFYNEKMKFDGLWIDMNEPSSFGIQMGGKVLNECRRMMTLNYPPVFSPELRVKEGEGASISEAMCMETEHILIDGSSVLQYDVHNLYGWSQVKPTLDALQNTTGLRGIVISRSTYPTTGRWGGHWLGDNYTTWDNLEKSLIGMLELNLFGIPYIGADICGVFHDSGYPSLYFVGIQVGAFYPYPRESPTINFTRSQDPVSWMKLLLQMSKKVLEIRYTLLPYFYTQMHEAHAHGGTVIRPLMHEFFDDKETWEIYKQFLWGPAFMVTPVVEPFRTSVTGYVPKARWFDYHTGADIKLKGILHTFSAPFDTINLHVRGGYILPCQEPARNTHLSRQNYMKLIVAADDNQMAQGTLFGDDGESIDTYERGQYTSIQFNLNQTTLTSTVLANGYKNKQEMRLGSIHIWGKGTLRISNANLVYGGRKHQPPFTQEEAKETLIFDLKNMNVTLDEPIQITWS

[4] = target: Lysosomal alpha-glucosidase (Rattus norvegicus) (UniProt Q6P7A9); test: Inhibition of rat intestinal maltase at >384 uM
Sequence of Lysosomal alpha-glucosidase (Rattus norvegicus) (Q6P7A9 whole entry): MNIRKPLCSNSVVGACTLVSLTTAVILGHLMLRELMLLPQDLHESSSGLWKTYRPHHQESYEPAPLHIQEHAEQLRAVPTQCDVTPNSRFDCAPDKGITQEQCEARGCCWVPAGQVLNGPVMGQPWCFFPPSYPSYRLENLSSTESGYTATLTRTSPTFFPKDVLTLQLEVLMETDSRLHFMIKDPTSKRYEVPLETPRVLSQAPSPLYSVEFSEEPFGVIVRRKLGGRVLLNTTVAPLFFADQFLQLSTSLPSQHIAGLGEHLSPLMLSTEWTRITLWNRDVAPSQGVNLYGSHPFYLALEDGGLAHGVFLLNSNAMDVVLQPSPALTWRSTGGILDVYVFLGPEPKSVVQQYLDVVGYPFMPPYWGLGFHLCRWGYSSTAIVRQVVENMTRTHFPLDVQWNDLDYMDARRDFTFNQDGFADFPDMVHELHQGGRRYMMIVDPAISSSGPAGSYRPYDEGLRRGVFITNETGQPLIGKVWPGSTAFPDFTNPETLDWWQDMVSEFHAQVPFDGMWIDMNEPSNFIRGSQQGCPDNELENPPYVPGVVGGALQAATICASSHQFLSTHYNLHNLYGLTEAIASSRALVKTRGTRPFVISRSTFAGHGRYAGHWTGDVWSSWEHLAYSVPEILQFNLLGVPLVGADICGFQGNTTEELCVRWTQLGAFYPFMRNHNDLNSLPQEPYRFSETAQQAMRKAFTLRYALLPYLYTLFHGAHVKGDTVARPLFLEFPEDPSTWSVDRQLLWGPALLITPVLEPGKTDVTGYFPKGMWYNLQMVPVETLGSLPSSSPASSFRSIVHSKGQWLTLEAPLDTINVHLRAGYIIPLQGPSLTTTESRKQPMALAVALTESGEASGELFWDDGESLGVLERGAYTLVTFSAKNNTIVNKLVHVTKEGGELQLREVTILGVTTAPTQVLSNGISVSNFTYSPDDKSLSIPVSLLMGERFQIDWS

T1 sequence (P23739 1-1013 limits assumed): as the sequence (P23739 1-1013 limits assumed) above
T1 sequence (P23739 1014-1841 limits assumed): as the sequence (P23739 1014-1841 limits assumed) above

Row | Structure (SMILES) | IC50 [1] [nM] | IC50 [2] [nM] | inhibition [3] [%] | inhibition [4] [%]
1 | OC[C@@H](O)[C@@H](O)[C@H](O)[C@H](O)C[S@+]1C[C@@H](O)[C@H](O)[C@H]1CO | 2900 | 1000 |  | 
2 | O=S(=O)([O-])OC[C@@H](O)C[S@+]1C[C@@H](O)[C@H](O)[C@H]1CO | > 329000 | > 329000 |  | 
3 | OC[C@@H](O)C[S@+]1C[C@@H](O)[C@H](O)[C@H]1CO | > 384000 | 52900 | 34.5 | 
4 | OC[C@@H]1[C@@H](O)[C@H](O)C[S@@+]1C[C@@H](O)[C@H](O)[C@H](O)[C@@H](O)CO | 300 | 1000 |  | 
5 | O=S(=O)([O-])O[C@@H]([C@H](O)[C@H](O)[C@@H](O)CO)[C@H](O)C[S+]1C[C@@H](O)[C@H](O)[C@H]1CO (stereo partly drawn) [KOTALANOL] | 750 | 5700 |  | 
6 | OC[C@@H]1[C@@H](O)[C@H](O)C[S@@+]1C[C@@H](O)[C@@H](O)[C@H](O)[C@H](O)[C@@H](O)CO [NEOKOTALANOL] | 4500 | 1800 |  | 
7 | OC[C@@H]1[C@@H](O)[C@H](O)C[S@@+]1C[C@@H](O)[C@@H](O)[C@H](O)[C@@H](O)CO [NEOPONKORANOL] | 1000 | 1400 |  | 
8 | [O-][C@@H](CO)[C@H](O)C[S@+]1C[C@@H](O)[C@H](O)[C@H]1CO [NEOSALACINOL] | 1300 | 300 |  | 
9 | OC[C@H](O)C[S@+]1C[C@@H](O)[C@H](O)[C@H]1CO [NEOSALAPRINOL] | 90000 | 6500 |  | 35
10 | O=S(=O)([O-])O[C@@H]([C@H](O)[C@@H](O)CO)[C@H](O)C[S@+]1C[C@@H](O)[C@H](O)[C@H]1CO [PONKORANOL] | 290 | 2600 |  | 
11 | O=S(=O)([O-])O[C@@H](CO)[C@H](O)C[S@+]1C[C@@H](O)[C@H](O)[C@H]1CO [SALACINOL] | 1600 | 1300 |  | 
12 | O=S(=O)([O-])OC[C@H](O)C[S@+]1C[C@@H](O)[C@H](O)[C@H]1CO [SALAPRINOL] | > 329000 | 15000 |  | 
13 | OCC(CO)N[C@H]1C[C@](O)(CO)[C@@H](O)[C@H](O)[C@H]1O [VOGLIBOSE] | 200 | 2100 |  | 
